Experimental data taken from US8952024B2, “Herbicidal pyrimidone derivatives” (E I du Pont de Nemours and Company, priority 2009, dated 2015).

Legend:
Format in all cases: in vivo
rice (Oryza sativa) = test: Test B flooded paddy test; details: for Plant response rating, Flood, Rice: 250 g ai/ha, flooded paddy test, visual rating on 0 to 100 scale (0 no effect, 100 complete control) after 13 to 15 days; for Plant response rating, Rice: Flood (flooded paddy test), 13 to 15 days
Outline: (§1)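 2-leaf seedlings; pots flooded 3 cm over soil at treatment; cpd dosed into floodwater, depth kept constant. Greenhouse 13–15 d. Visual rating vs untreated controls, 0 = no effect, 100 = complete control.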

[1] = test system: ducksalad (Heteranthera limosa); test: Test B flooded paddy test; details: for Plant response rating, Flood, Ducksalad: 250 g ai/ha, flooded paddy test, visual rating on 0 to 100 scale (0 no effect, 100 complete control) after 13 to 15 days; for Plant response rating, Ducksalad: Flood (flooded paddy test), 13 to 15 days
Outline: as §1

[2] = test system: umbrella sedge (Cyperus difformis); test: Test B flooded paddy test; details: for Plant response rating, Flood, Sedge, Umbrella: 250 g ai/ha, flooded paddy test, visual rating on 0 to 100 scale (0 no effect, 100 complete control) after 13 to 15 days; for Plant response rating, Sedge, Umbrella: Flood (flooded paddy test), 13 to 15 days
Outline: as §1

[3] = test system: barnyardgrass (Echinochloa crus-galli); test: Test B flooded paddy test; details: for Plant response rating, Flood, Barnyardgrass: 250 g ai/ha, flooded paddy test, visual rating on 0 to 100 scale (0 no effect, 100 complete control) after 13 to 15 days; for Plant response rating, Barnyardgrass: Flood (flooded paddy test), 13 to 15 days
Outline: as §1

[4] = test system: large crabgrass (Digitaria sanguinalis); test: Test A pre-/postemergence plant response; details: for Crabgrass, Large plant response rating: visual injury, 0 to 100 scale (0 no effect, 100 complete control), approx. ten days
Outline: (§2)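 Approximately ten days after concurrent pre- and postemergence spraying in a greenhouse, plants were compared with untreated controls and rated visually for injury, 0 = no effect to 100 = complete control. Preemergence spray was directed onto loam/sand soil; postemergence targeted 1–2 leaf seedlings.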

[5] = test system: pigweed (Amaranthus retroflexus); test: Test A pre-/postemergence plant response; details: for Pigweed plant response rating: visual injury, 0 to 100 scale (0 no effect, 100 complete control), approx. ten days
Outline: as §2

[6] = test system: morningglory (Ipomoea spp.); test: Test A pre-/postemergence plant response; details: for Morningglory plant response rating: visual injury, 0 to 100 scale (0 no effect, 100 complete control), approx. ten days
Outline: as §2

corn (Zea mays) = test: Test A pre-/postemergence plant response; details: for Corn plant response rating: visual injury, 0 to 100 scale (0 no effect, 100 complete control), approx. ten days
Outline: as §2

[7] = test system: giant foxtail (Setaria faberii); test: Test A pre-/postemergence plant response; details: for Foxtail, Giant plant response rating: visual injury, 0 to 100 scale (0 no effect, 100 complete control), approx. ten days
Outline: as §2

[8] = test system: wheat (Triticum aestivum); test: Test A pre-/postemergence plant response; details: for Wheat plant response rating: visual injury, 0 to 100 scale (0 no effect, 100 complete control), approx. ten days
Outline: as §2

[9] = test system: barnyardgrass (Echinochloa crus-galli); test: Test A pre-/postemergence plant response; details: for Barnyardgrass plant response rating: visual injury, 0 to 100 scale (0 no effect, 100 complete control), approx. ten days
Outline: as §2

[10] = test system: velvetleaf (Abutilon theophrasti); test: Test A pre-/postemergence plant response; details: for Velvetleaf plant response rating: visual injury, 0 to 100 scale (0 no effect, 100 complete control), approx. ten days
Outline: as §2

[11] = 62 g ai/ha, scale of 0 to 100 where 0 is no effect and 100 is complete control
[12] = Postemergence, 125 g ai/ha, 0 to 100 scale where 0 is no effect and 100 is complete control
[13] = Preemergence, 125 g ai/ha, 0 to 100 scale, 0 = no effect, 100 = complete control
[14] = Preemergence, 500 g ai/ha, 0 to 100 scale, 0 = no effect, 100 = complete control
[15] = 125 g ai/ha, scale 0 to 100, 0 is no effect, 100 is complete control
[16] = Flood, 31 g ai/ha, scale 0 to 100 (0 no effect, 100 complete control)

Compound: C=CCCn1c(-c2ccccc2)ncc(C(=O)C2=C(O)CCCC2=O)c1=O [Compound 214]
- Plant response rating, Flood, Rice (rice (Oryza sativa)): 15
- Plant response rating, Rice (rice (Oryza sativa); [11]): 0
- Plant response rating, Flood, Ducksalad [1]: 95
- Plant response rating, Ducksalad [1, 11]: 0
- Plant response rating, Flood, Sedge, Umbrella [2]: 85
- Plant response rating, Sedge, Umbrella [2, 11]: 0
- Plant response rating, Flood, Barnyardgrass [3]: 20
- Plant response rating, Barnyardgrass [3, 11]: 0
- Plant response rating, Crabgrass, Large [4, 12]: 80
- Crabgrass, Large plant response rating ([4]; Postemergence, 500 g ai/ha): 90
- Plant response rating, Crabgrass, Large [4, 13]: 30
- Plant response rating, Crabgrass, Large [4, 14]: 90
- Plant response rating, Pigweed [5, 12]: 90
- Pigweed plant response rating ([5]; Postemergence, 500 g ai/ha): 100
- Plant response rating, Pigweed [5, 13]: 70
- Plant response rating, Pigweed [5, 14]: 90
- Plant response rating, Morningglory [6, 12]: 80
- Morningglory plant response rating ([6]; Postemergence, 500 g ai/ha): 100
- Plant response rating, Morningglory [6, 13]: 0
- Plant response rating, Morningglory [6, 14]: 80
- Plant response rating, Corn (corn (Zea mays); [12]): 0
- Corn plant response rating (corn (Zea mays); Postemergence, 500 g ai/ha): 30
- Plant response rating, Corn (corn (Zea mays); [13]): 0
- Plant response rating, Corn (corn (Zea mays); [14]): 0
- Plant response rating, Foxtail, Giant [7, 12]: 50
- Foxtail, Giant plant response rating ([7]; Postemergence, 500 g ai/ha): 90
- Plant response rating, Foxtail, Giant [7, 13]: 30
- Plant response rating, Foxtail, Giant [7, 14]: 70
- Plant response rating, Wheat [8, 12]: 0
- Wheat plant response rating ([8]; Postemergence, 500 g ai/ha): 20
- Plant response rating, Wheat [8, 13]: 0
- Plant response rating, Wheat [8, 14]: 30
- Plant response rating, Barnyardgrass [9, 12]: 80
- Barnyardgrass plant response rating ([9]; Postemergence, 500 g ai/ha): 90
- Plant response rating, Barnyardgrass [9, 13]: 10
- Plant response rating, Barnyardgrass [9, 14]: 60
- Plant response rating, Velvetleaf [10, 12]: 100
- Velvetleaf plant response rating ([10]; Postemergence, 500 g ai/ha): 100
- Plant response rating, Velvetleaf [10, 13]: 90
- Plant response rating, Velvetleaf [10, 14]: 100

Compound: C#Cc1ccc(-c2ncc(C(=O)C3=C(O)CCCC3=O)c(=O)n2C2CCCCC2)cc1 [Compound 216]
- Plant response rating, Flood, Rice (rice (Oryza sativa)): 0
- Plant response rating, Rice (rice (Oryza sativa); [11]): 0
- Plant response rating, Rice (rice (Oryza sativa); [15]): 0
- Rice plant response rating (rice (Oryza sativa); [16]): 0
- Plant response rating, Flood, Ducksalad [1]: 95
- Plant response rating, Ducksalad [1, 11]: 90
- Plant response rating, Ducksalad [1, 15]: 90
- Ducksalad plant response rating [1, 16]: 50
- Plant response rating, Flood, Sedge, Umbrella [2]: 100
- Plant response rating, Sedge, Umbrella [2, 11]: 65
- Plant response rating, Sedge, Umbrella [2, 15]: 80
- Sedge, Umbrella plant response rating [2, 16]: 0
- Plant response rating, Flood, Barnyardgrass [3]: 0
- Plant response rating, Barnyardgrass [3, 11]: 0
- Plant response rating, Barnyardgrass [3, 15]: 0
- Barnyardgrass plant response rating [3, 16]: 0
- Plant response rating, Crabgrass, Large [4, 12]: 40
- Crabgrass, Large plant response rating ([4]; Postemergence, 500 g ai/ha): 80
- Plant response rating, Crabgrass, Large [4, 13]: 0
- Plant response rating, Crabgrass, Large [4, 14]: 80
- Plant response rating, Pigweed [5, 12]: 90
- Pigweed plant response rating ([5]; Postemergence, 500 g ai/ha): 90
- Plant response rating, Pigweed [5, 13]: 0
- Plant response rating, Pigweed [5, 14]: 50
- Plant response rating, Morningglory [6, 12]: 70
- Morningglory plant response rating ([6]; Postemergence, 500 g ai/ha): 90
- Plant response rating, Morningglory [6, 13]: 0
- Plant response rating, Morningglory [6, 14]: 30
- Plant response rating, Corn (corn (Zea mays); [12]): 0
- Corn plant response rating (corn (Zea mays); Postemergence, 500 g ai/ha): 0
- Plant response rating, Corn (corn (Zea mays); [13]): 0
- Plant response rating, Corn (corn (Zea mays); [14]): 20
- Plant response rating, Foxtail, Giant [7, 12]: 30
- Foxtail, Giant plant response rating ([7]; Postemergence, 500 g ai/ha): 70
- Plant response rating, Foxtail, Giant [7, 13]: 0
- Plant response rating, Foxtail, Giant [7, 14]: 60
- Plant response rating, Wheat [8, 12]: 20
- Wheat plant response rating ([8]; Postemergence, 500 g ai/ha): 30
- Plant response rating, Wheat [8, 13]: 0
- Plant response rating, Wheat [8, 14]: 0
- Plant response rating, Barnyardgrass [9, 12]: 10
- Barnyardgrass plant response rating ([9]; Postemergence, 500 g ai/ha): 90
- Plant response rating, Barnyardgrass [9, 13]: 0
- Plant response rating, Barnyardgrass [9, 14]: 20
- Plant response rating, Velvetleaf [10, 12]: 90
- Velvetleaf plant response rating ([10]; Postemergence, 500 g ai/ha): 100
- Plant response rating, Velvetleaf [10, 13]: 0
- Plant response rating, Velvetleaf [10, 14]: 30
